Experimental data as given in PubChem BioAssay AID977605 (Broad Institute, 2014).
Calls of active or inactive are those of the source.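 How the source made its calls: active means fitted curve reaches 40% activation below the top valid tested dose, in every test run; inconclusive means test runs disagree on the call; inactive means the rest, including effects opposite to the expected direction.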

Experiment: endothelial E-selectin upregulation by compounds – imaging, HUVEC, cherry-picked samples, dose response (AID 977605);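 further: signal is the share of imaged cells scored positive for E-selectin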
Settings: HUVEC E-selectin immunostaining, at 19.5 µM (top of the series), percent of TNF-alpha response over vehicle
With `CCCC#Cc1ccc2c(c1)O[C@@H](CN(C)CCC)[C@@H](C)CN([C@@H](C)CO)S2(=O)=O` the activation was -0.152% (inactive).
In the case of `CN(CC(=O)Nc1ccc(Br)cc1)Cc1ccccc1`, the activation is reported as 0.013% (inactive).
For `C[C@H]1CN([C@@H](C)CO)C(=O)c2cc(NS(=O)(=O)c3cn(C)cn3)ccc2O[C@@H]1CN(C)Cc1ccncc1`, the activation was -0.214% (inactive).
In the case of `C[C@H]1CN([C@@H](C)CO)C(=O)c2cc(NC(=O)Nc3ccc4c(c3)OCO4)ccc2O[C@@H]1CN(C)S(=O)(=O)c1ccc(F)cc1`, the activation is reported as -0.105% (inactive).
For `COc1ccccc1CN1CC(C(=O)N(C)Cc2[nH]c3ccccc3c2C)CCC1=O` (centres undefined), the activation was 0.071% (inactive).
With `C[C@H](CO)N1C[C@H](C)[C@H](CN(C)Cc2ccc(C(F)(F)F)cc2)Oc2ccc(NC(=O)Cc3cn(C)c4ccccc34)cc2CC1=O` the activation was 0.156% (inactive).
With `Oc1cccc(Oc2ncc(C(F)(F)F)cc2Cl)c1` the activation was -0.09% (inactive).
With `CCCC#Cc1ccc2c(c1)O[C@@H](CN(C)C(=O)c1ccccc1)[C@@H](C)CN([C@H](C)CO)S2(=O)=O` the activation was -0.25% (inactive).
For `CCCCOCC1CN(CCCC)S(=O)(=O)c2c(Oc3ccc(C(C)C)cc3)cccc2O1` (centres undefined), the activation was -0.279% (inactive).
For `Cc1ccc(S(=O)(=O)N(C)C[C@@H]2Oc3c(NS(=O)(=O)c4ccc(Cl)cc4)cccc3C(=O)N([C@@H](C)CO)C[C@H]2C)cc1`, the activation was -0.172% (inactive).
In the case of `CC(=O)c1ccc(N(C(=O)CNC(=O)c2ccco2)C(C(=O)NC2CCCC2)c2ccc(C)o2)cc1` (centres undefined), the activation is reported as -0.024% (inactive).
For `C[C@@H]1CN([C@H](C)CO)C(=O)c2cc(NS(C)(=O)=O)ccc2O[C@@H]1CN(C)C(=O)Nc1ccccc1`, the activation was -0.094% (inactive).
With `C[C@H](CO)N1C[C@H](C)[C@H](CN(C)CC2CC2)Oc2c(NC(=O)C3CC3)cccc2C1=O` the activation was -0.037% (inactive).
In the case of `COc1ccc(NC(=O)c2cc(S(=O)(=O)N3CCCCC3)c[nH]2)cc1`, the activation is reported as 0.335% (inactive).
In the case of `Cc1ccccc1CN1CCN(S(=O)(=O)c2ccc(Cl)s2)CC1`, the activation is reported as 0.152% (inactive).
In the case of `C[C@@H]1CN([C@H](C)CO)C(=O)c2cc(N(C)C)ccc2O[C@H]1CN(C)S(=O)(=O)c1cn(C)cn1`, the activation is reported as -0.007% (inactive).
In the case of `C[C@@H]1CN([C@@H](C)CO)C(=O)Cc2cc(NC(=O)Nc3ccc(F)cc3)ccc2O[C@H]1CN(C)C(=O)Nc1ccc(C(F)(F)F)cc1`, the activation is reported as -0.14% (inactive).
For `CCC(CC)NC(=O)Nc1ccc(F)c(Cl)c1`, the activation was 0.516% (inactive).
In the case of `CCn1c(CCC(=O)O)nc2cc(S(=O)(=O)N3CCOCC3)ccc21`, the activation is reported as -0.184% (inactive).
For `CCc1cc(C(=O)Nc2nc(-c3ccccn3)cs2)sc1C`, the activation was 0.665% (inactive).
In the case of `C[C@@H]1CN([C@@H](C)CO)C(=O)c2cc(NC(=O)Nc3ccc(F)cc3)ccc2O[C@@H]1CN(C)S(=O)(=O)c1cccs1`, the activation is reported as -0.142% (inactive).
In the case of `CCOc1cc(N2CCOCC2)c(OCC)cc1NC(=O)c1ccc(S(=O)(=O)N2CC(C)OC(C)C2)cc1` (centres undefined), the activation is reported as -0.215% (inactive).
For `C[C@H](CO)N1C[C@H](C)[C@@H](CN(C)S(=O)(=O)c2cccs2)Oc2ccc(NS(=O)(=O)c3ccc(Cl)cc3)cc2CC1=O`, the activation was 0.125% (inactive).
With `CC(=O)N(C)C[C@@H]1Oc2cc(C#Cc3ccccn3)ccc2S(=O)(=O)N([C@H](C)CO)C[C@@H]1C` the activation was -0.123% (inactive).
For `CC(C)NC(=O)Nc1cccc2c1O[C@@H](CN(C)Cc1ccc(C(F)(F)F)cc1)[C@H](C)CN([C@H](C)CO)C2=O`, the activation was -0.054% (inactive).
In the case of `CCCCCCOc1ccc(C(CC(N)=O)C(=O)O)cc1` (centres undefined), the activation is reported as -0.269% (inactive).
In the case of `CNC[C@H]1Oc2ccc(NS(=O)(=O)c3ccc(OC)cc3)cc2CC(=O)N([C@@H](C)CO)C[C@@H]1C`, the activation is reported as -0.213% (inactive).
With `COc1ccc(CN(C)C[C@@H]2Oc3ccc(NC(=O)Nc4ccc(F)cc4)cc3CC(=O)N([C@H](C)CO)C[C@@H]2C)cc1` the activation was -0.068% (inactive).
With `CC(C)NC(=O)Nc1ccc2c(c1)C(=O)N([C@@H](C)CO)C[C@H](C)[C@@H](CN(C)Cc1ccc(C(F)(F)F)cc1)O2` the activation was -0.03% (inactive).
For `C[C@H]1CN([C@@H](C)CO)C(=O)c2cccc(NC(=O)c3cnccn3)c2O[C@H]1CN(C)Cc1ccc2c(c1)OCO2`, the activation was -0.117% (inactive).
For `C[C@@H]1CN([C@H](C)CO)C(=O)c2cc(NC(=O)CCN3CCOCC3)ccc2O[C@@H]1CN(C)Cc1ccncc1`, the activation was -0.14% (inactive).
For `Cc1cccc(NC(=O)CCCN2C(=O)C(c3ccccc3)Oc3cccnc32)c1C` (centres undefined), the activation was 0.811% (inactive).
In the case of `c1ccc(-c2ccccc2OCCOCCN2CCNCC2)cc1`, the activation is reported as 0.084% (inactive).
With `COc1ccc(CN(C)C[C@H]2Oc3c(NC(=O)c4cnccn4)cccc3C(=O)N([C@H](C)CO)C[C@@H]2C)cc1` the activation was 0.248% (inactive).
For `CC1CCCC(C)N1C(=O)CSc1nc2c(c(=O)n(C)c(=O)n2C)n1C` (centres undefined), the activation was -0.005% (inactive).
With `C[C@H](CO)N1C[C@H](C)[C@H](CN(C)Cc2ccc(Cl)c(Cl)c2)Oc2c(NS(=O)(=O)c3cn(C)cn3)cccc2C1=O` the activation was -0.123% (inactive).
In the case of `CNS(=O)(=O)c1ccc(NC(=O)C2CC(=O)N(c3ccc(Cl)cc3)C2)cc1` (centres undefined), the activation is reported as -0.269% (inactive).
In the case of `C[C@@H]1CN([C@@H](C)CO)C(=O)Cc2cc(NC(=O)Nc3ccc(F)cc3)ccc2O[C@@H]1CN(C)Cc1ccc(C(=O)O)cc1`, the activation is reported as -0.134% (inactive).
For `C[C@@H]1CN([C@H](C)CO)C(=O)c2cc(NC(=O)Cc3ccccc3)ccc2O[C@H]1CN(C)C(=O)NC1CCCCC1`, the activation was 0.096% (inactive).
In the case of `C[C@@H]1CN([C@@H](C)CO)C(=O)c2cc(NC(=O)Nc3ccc(C(F)(F)F)cc3)ccc2O[C@@H]1CN(C)Cc1ccc(Oc2ccccc2)cc1`, the activation is reported as -0.275% (inactive).
With `COc1ccc(NC(=O)N(C)C[C@H]2Oc3c(NS(=O)(=O)c4cn(C)cn4)cccc3C(=O)N([C@@H](C)CO)C[C@@H]2C)cc1` the activation was 0.542% (inactive).
In the case of `CCC(=O)c1ccc(OCC(=O)NNC(=O)c2cc(C)oc2C)cc1`, the activation is reported as -0.03% (inactive).
In the case of `Cc1noc(C)c1COc1ccc(C(=O)N2CCC(C)CC2)cc1`, the activation is reported as 8.94% (inactive).
In the case of `Cc1ccc(S(=O)(=O)Nc2cc(-c3ccccc3)nn2C)cc1Cl`, the activation is reported as -0.007% (inactive).
In the case of `Cc1cc2cc(CNC(=O)c3ccc(S(=O)(=O)N4CCCCC4)cc3)ccc2n1C`, the activation is reported as 0.135% (inactive).
With `Cc1noc(C)c1S(=O)(=O)N(C)C[C@H]1Oc2ccc(NC(=O)C3CC3)cc2CC(=O)N([C@@H](C)CO)C[C@@H]1C` the activation was 32.2% (inactive).
With `C[C@@H]1CN([C@@H](C)CO)C(=O)Cc2cc(NC(=O)Nc3ccc(F)cc3)ccc2O[C@H]1CN(C)S(=O)(=O)c1ccccc1` the activation was -0.074% (inactive).
For `C[C@H](CO)N1C[C@H](C)[C@H](CN(C)S(=O)(=O)c2ccc(Cl)cc2)Oc2ccc(NC(=O)Cc3ccccc3)cc2C1=O`, the activation was -0.076% (inactive).
With `CC(C)NC(=O)Nc1ccc2c(c1)CC(=O)N([C@H](C)CO)C[C@@H](C)[C@H](CN(C)Cc1ccc(Oc3ccccc3)cc1)O2` the activation was -0.138% (inactive).
In the case of `C[C@@H]1CN([C@H](C)CO)C(=O)Cc2cc(NC(=O)CCCCCC(=O)Nc3ccccc3N)ccc2O[C@H]1CN(C)C(=O)Nc1ccc2c(c1)OCO2`, the activation is reported as -0.123% (inactive).
With `CC(C)NC(=O)N(C)C[C@@H]1Oc2c(NC(=O)c3ccc(-c4nccs4)cc3)cccc2C(=O)N([C@H](C)CO)C[C@H]1C` the activation was -0.093% (inactive).
In the case of `C[C@H]1CN([C@@H](C)CO)C(=O)c2cc(N(C)C)ccc2O[C@H]1CN(C)Cc1ccc(C(=O)O)cc1`, the activation is reported as 0.082% (inactive).
With `C[C@H](CO)N1C[C@H](C)[C@@H](CN(C)S(=O)(=O)c2cn(C)cn2)Oc2ccc(NC(=O)Nc3ccc(F)cc3)cc2CC1=O` the activation was 0.1% (inactive).
With `C[C@@H]1CN([C@H](C)CO)C(=O)c2cc(NC(=O)NC3CCCCC3)ccc2O[C@H]1CN(C)S(=O)(=O)c1ccc(Cl)cc1` the activation was 1.03% (inactive).
With `CC(C)CCNC(=O)[C@H](Cc1ccccc1)N1Cc2ccccc2C1=O` the activation was 0.131% (inactive).
In the case of `CCOc1ccc2ncc(S(=O)(=O)c3ccc(C)cc3)c(N3CCC4(CC3)OCCO4)c2c1`, the activation is reported as -0.045% (inactive).
For `COc1ccc(NC(=O)N(C)C[C@H]2Oc3ccc(N(C)C)cc3CC(=O)N([C@H](C)CO)C[C@@H]2C)cc1`, the activation was -0.19% (inactive).

Same assay, conditions: HUVEC E-selectin immunostaining, at 21 µM (top of the series), percent of TNF-alpha response over vehicle
With `CNC[C@@H]1Oc2c(NC(=O)Nc3ccc(F)cc3)cccc2C(=O)N([C@H](C)CO)C[C@H]1C` the activation was -0.191% (inactive).
In the case of `C[C@H](CO)N1C[C@H](C)[C@H](CN(C)S(=O)(=O)c2ccc(Cl)cc2)Oc2ccc(NC(=O)Nc3ccc(F)cc3)cc2CC1=O`, the activation is reported as 0.805% (inactive).
In the case of `C[C@H]1CN([C@@H](C)CO)C(=O)c2cc(NC(=O)Nc3ccc(F)cc3)ccc2O[C@H]1CN(C)S(=O)(=O)c1cccs1`, the activation is reported as 2.05% (inactive).
In the case of `C[C@@H]1CN([C@H](C)CO)C(=O)c2cc(NC(=O)C3CCCCC3)ccc2O[C@H]1CN(C)C(=O)Nc1ccc2c(c1)OCO2`, the activation is reported as 4.77% (inactive).
With `C[C@@H]1CN([C@H](C)CO)C(=O)c2cccc(NS(=O)(=O)c3cn(C)cn3)c2O[C@H]1CN(C)C(=O)Nc1ccc(F)cc1` the activation was 6% (inactive).
For `COc1ccc(NC(=O)N(C)C[C@@H]2Oc3ccc(NC(=O)c4ccncc4)cc3CC(=O)N([C@@H](C)CO)C[C@@H]2C)cc1`, the activation was -0.09% (inactive).
For `C[C@@H]1CN([C@H](C)CO)C(=O)c2cc(NC(=O)CCCCCC(=O)Nc3ccccc3N)ccc2O[C@H]1CN(C)C(=O)Nc1ccc2c(c1)OCO2`, the activation was -0.113% (inactive).
With `C[C@@H]1CN([C@H](C)CO)C(=O)Cc2cc(NC(=O)Cc3cn(C)c4ccccc34)ccc2O[C@@H]1CN(C)Cc1ccc(C(F)(F)F)cc1` the activation was 0.433% (inactive).
In the case of `C[C@@H]1CN([C@@H](C)CO)C(=O)Cc2cc(NS(=O)(=O)c3ccc(F)cc3)ccc2O[C@@H]1CN(C)S(=O)(=O)c1ccc(Cl)cc1`, the activation is reported as -0.065% (inactive).
In the case of `COc1ccc(S(=O)(=O)N(C)C[C@H]2Oc3ccc(NC(=O)Nc4c(C)noc4C)cc3C(=O)N([C@@H](C)CO)C[C@@H]2C)cc1`, the activation is reported as 2.96% (inactive).
With `COc1ccc(S(=O)(=O)N(C)C[C@H]2Oc3ccc(NC(=O)c4ccncc4)cc3C(=O)N([C@H](C)CO)C[C@H]2C)cc1` the activation was 4.32% (inactive).
With `CC(C)NC(=O)Nc1ccc2c(c1)CC(=O)N([C@H](C)CO)C[C@H](C)[C@H](CN(C)Cc1ccc(Cl)c(Cl)c1)O2` the activation was 0.284% (inactive).
